# ChEMBL document CHEMBL1201862, “PubChem BioAssay data set” (2004)
#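 96-well plates; 48 h exposure; 5 concentrations. Endpoints by linear interpolation between flanking doses. Not reached: highest tested concentration assigned. Abbreviation: GI50, concentration required for 50% inhibition of growth.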 Calls of active or inactive are those of the source. Rule as the data show it: active = GI50 up to about 1.1 µM and inactive = higher.
# Assays:
# Assay in all cases: growth of human tumour cells (NCI), 48 h
# SNB-19 = tested on: SNB-19
# A549 = tested on: A549
# SK-MEL-28 = tested on: SK-MEL-28
# UO-31 = tested on: UO-31
# PC-3 = tested on: PC-3
# KM12 = tested on: KM12
# SK-MEL-2 = tested on: SK-MEL-2
# ACHN = tested on: ACHN
# SF-268 = tested on: SF-268
# HT-29 = tested on: HT-29
# SF-295 = tested on: SF-295
# HCC 2998 = tested on: HCC 2998
# SW-620 = tested on: SW-620
# 786-0 = tested on: 786-0
# NCI/ADR-RES = tested on: NCI/ADR-RES
# MDA-MB-435 = tested on: MDA-MB-435
# HCT-116 = tested on: HCT-116
# CCRF-CEM = tested on: CCRF-CEM
# HL-60 = tested on: HL-60
Compound,GI50 (SNB-19),GI50 (A549),GI50 (SK-MEL-28),GI50 (UO-31),GI50 (PC-3),GI50 (KM12),GI50 (SK-MEL-2),GI50 (ACHN),GI50 (SF-268),GI50 (HT-29),GI50 (SF-295),GI50 (HCC 2998),GI50 (SW-620),GI50 (786-0),GI50 (NCI/ADR-RES),GI50 (MDA-MB-435),GI50 (HCT-116),GI50 (CCRF-CEM),GI50 (HL-60)
Clc1ccc(OCc2nnc(CCCCCCCCc3nnc(COc4ccc(Cl)cc4)n3Nc3ccccc3)n2Nc2ccccc2)cc1,12.9 µM (inactive),1.19 µM (inactive),4.62 µM (inactive),2.04 µM (inactive),1.44 µM (inactive),11.2 µM (inactive),16.1 µM (inactive),1.16 µM (inactive),12.8 µM (inactive),5.24 µM (inactive),0.145 µM (active),12.2 µM (inactive),16.9 µM (inactive),15.3 µM (inactive),3.84 µM (inactive),2.22 µM (inactive),4.44 µM (inactive),–,–
c1csc(-c2cc(-c3ccsc3)c(-c3cccs3)s2)c1,> 100 µM (inactive),92.7 µM (inactive),41.3 µM (inactive),76.2 µM (inactive),> 100 µM (inactive),31.8 µM (inactive),–,99.5 µM (inactive),> 100 µM (inactive),43.6 µM (inactive),> 100 µM (inactive),55.8 µM (inactive),74.3 µM (inactive),> 100 µM (inactive),> 100 µM (inactive),39.4 µM (inactive),29.8 µM (inactive),28.8 µM (inactive),–
Cc1csc(NC23CC4CC(CC(C4)C2)C3)[n+]1C(P(=O)([O-])O)P(=O)(O)O (stereo not drawn),> 100 µM (inactive),> 100 µM (inactive),> 100 µM (inactive),> 100 µM (inactive),> 100 µM (inactive),> 100 µM (inactive),–,> 100 µM (inactive),> 100 µM (inactive),> 100 µM (inactive),> 100 µM (inactive),> 100 µM (inactive),> 100 µM (inactive),> 100 µM (inactive),> 100 µM (inactive),> 100 µM (inactive),> 100 µM (inactive),> 100 µM (inactive),–
CC[C@]1(Cc2ccc(OC)c(OC)c2)[C@@H]2C[C@@H](C3OCCO3)ON2O[C@H](OC2CCCC2(c2ccccc2)c2ccccc2)[C@@H]1OC(C)=O (stereo partly drawn),18.1 µM (inactive),24 µM (inactive),20.5 µM (inactive),20.6 µM (inactive),24.4 µM (inactive),15.6 µM (inactive),15.7 µM (inactive),18.1 µM (inactive),19.9 µM (inactive),23.5 µM (inactive),21.2 µM (inactive),–,33 µM (inactive),20 µM (inactive),28.9 µM (inactive),21.5 µM (inactive),17.4 µM (inactive),18.7 µM (inactive),–
C/C(=N\NC1=NCCN1)c1cn(C2=NCCN2)nc1C,> 100 µM (inactive),> 100 µM (inactive),> 100 µM (inactive),> 100 µM (inactive),> 100 µM (inactive),> 100 µM (inactive),> 100 µM (inactive),> 100 µM (inactive),> 100 µM (inactive),> 100 µM (inactive),> 100 µM (inactive),> 100 µM (inactive),> 100 µM (inactive),> 100 µM (inactive),> 100 µM (inactive),> 100 µM (inactive),> 100 µM (inactive),–,–
COc1ccc(C(Cl)=C(c2ccc(OCCN(C)C)cc2)c2ccc(OCCN(C)C)cc2)cc1,2.42 µM (inactive),1.83 µM (inactive),1.63 µM (inactive),1.58 µM (inactive),–,1.37 µM (inactive),1.68 µM (inactive),1.82 µM (inactive),1.84 µM (inactive),1.49 µM (inactive),1.74 µM (inactive),2.26 µM (inactive),1.35 µM (inactive),1.27 µM (inactive),–,–,1.13 µM (inactive),1.16 µM (inactive),1.83 µM (inactive)
CC(C)c1c(O)c(O)c2c(c1O)C(=O)C(O)=C1C(C)(C)CCC[C@@]12C,4.76 µM (inactive),3.6 µM (inactive),5.85 µM (inactive),2.32 µM (inactive),2.64 µM (inactive),3.44 µM (inactive),3.76 µM (inactive),2.96 µM (inactive),4.76 µM (inactive),2.94 µM (inactive),2.96 µM (inactive),3.37 µM (inactive),3.29 µM (inactive),3.44 µM (inactive),–,2.96 µM (inactive),3.4 µM (inactive),3.48 µM (inactive),2.05 µM (inactive)
COc1ccc(CNc2cnc3ccc(N)cc3n2)cc1,> 100 µM (inactive),> 100 µM (inactive),3.84 µM (inactive),> 100 µM (inactive),–,> 100 µM (inactive),> 100 µM (inactive),> 100 µM (inactive),> 100 µM (inactive),> 100 µM (inactive),> 100 µM (inactive),> 100 µM (inactive),> 100 µM (inactive),> 100 µM (inactive),–,–,0.0622 µM (active),49.2 µM (inactive),> 100 µM (inactive)
COc1ccc(Cn2nc(OCc3ccccc3)c3cc([N+](=O)[O-])ccc32)cc1,> 100 µM (inactive),> 100 µM (inactive),> 100 µM (inactive),–,–,> 100 µM (inactive),> 100 µM (inactive),> 100 µM (inactive),> 100 µM (inactive),> 100 µM (inactive),> 100 µM (inactive),99.3 µM (inactive),> 100 µM (inactive),> 100 µM (inactive),> 100 µM (inactive),> 100 µM (inactive),–,> 100 µM (inactive),> 100 µM (inactive)
NC1(CCCCCCCCCCC(=O)O)CNCCNCCNCCNC1,18.5 µM (inactive),57.5 µM (inactive),> 100 µM (inactive),> 100 µM (inactive),–,48.9 µM (inactive),52.5 µM (inactive),55.3 µM (inactive),> 100 µM (inactive),40.8 µM (inactive),> 100 µM (inactive),15.2 µM (inactive),44.8 µM (inactive),36.7 µM (inactive),–,–,28.1 µM (inactive),22.6 µM (inactive),15.9 µM (inactive)
OCCN(/N=C\c1ccc2ccccc2c1)C1=NCCN1,32.4 µM (inactive),59.2 µM (inactive),19.3 µM (inactive),54.7 µM (inactive),24.9 µM (inactive),38.2 µM (inactive),20.3 µM (inactive),29.1 µM (inactive),35.1 µM (inactive),27.5 µM (inactive),31 µM (inactive),16.3 µM (inactive),21.1 µM (inactive),25.2 µM (inactive),–,16.9 µM (inactive),26.7 µM (inactive),27.6 µM (inactive),19 µM (inactive)
COC(=O)c1c(C)cccc1/C=C1\Cc2cc(C)cc(C)c2C1=O,18.5 µM (inactive),76.4 µM (inactive),> 100 µM (inactive),> 100 µM (inactive),> 100 µM (inactive),> 100 µM (inactive),13.2 µM (inactive),27.9 µM (inactive),30.8 µM (inactive),89.5 µM (inactive),21.7 µM (inactive),82.2 µM (inactive),> 100 µM (inactive),16.3 µM (inactive),–,–,36.8 µM (inactive),> 100 µM (inactive),> 100 µM (inactive)
C/C(=N\Nc1nc2ccccc2n1C)c1cc2ccccc2cn1,0.352 µM (active),0.0327 µM (active),0.213 µM (active),< 0.01 µM (active),–,< 0.025 µM (active),0.805 µM (active),< 0.01 µM (active),< 0.0294 µM (active),< 0.0118 µM (active),0.144 µM (active),11.6 µM (inactive),< 0.0118 µM (active),< 0.0173 µM (active),< 0.0182 µM (active),0.295 µM (active),< 0.01 µM (active),0.0161 µM (active),0.0103 µM (active)
CCc1cccc(C(C)C)c1NC(=O)C(=O)Nn1c(S)nc2ccccc2c1=O,–,> 100 µM (inactive),> 100 µM (inactive),> 100 µM (inactive),> 100 µM (inactive),> 100 µM (inactive),> 100 µM (inactive),> 100 µM (inactive),> 100 µM (inactive),> 100 µM (inactive),> 100 µM (inactive),> 100 µM (inactive),> 100 µM (inactive),> 100 µM (inactive),47.8 µM (inactive),> 100 µM (inactive),> 100 µM (inactive),> 100 µM (inactive),–
CN(C)CCNC(=O)c1cccc2[nH]c(-c3cccnc3)nc12,28.1 µM (inactive),19.8 µM (inactive),31.7 µM (inactive),17.8 µM (inactive),–,36.5 µM (inactive),25.8 µM (inactive),16.9 µM (inactive),27.9 µM (inactive),27.4 µM (inactive),30.5 µM (inactive),17.1 µM (inactive),12.9 µM (inactive),22.9 µM (inactive),–,–,9.55 µM (inactive),28.4 µM (inactive),31.5 µM (inactive)
CC(=O)O[C@H]1/C(=C/c2ccc(N(C)C)cc2)C[C@H]2[C@@H]3CC=C4C[C@@H](N5CCCC5)CC[C@]4(C)[C@H]3CC[C@]12C,> 100 µM (inactive),> 100 µM (inactive),> 100 µM (inactive),> 100 µM (inactive),> 100 µM (inactive),–,> 100 µM (inactive),> 100 µM (inactive),> 100 µM (inactive),63.2 µM (inactive),> 100 µM (inactive),–,> 100 µM (inactive),> 100 µM (inactive),> 100 µM (inactive),–,> 100 µM (inactive),–,> 100 µM (inactive)
